Literature values in patent US9943543B2, “Treating male infertility secondary to sperm oxidative stress” (priority 2009, dated 2018).

Q: Which “time to peak concentrations” value (after oral administration) does the source give for `CCC(=O)O[C@H](CC(=O)[O-])C[N+](C)(C)C` [Propionyl-L-carnitine] here?
A: about 1 hour

Q: And the “time of rise in L-carnitine plasma levels after administration” value (after oral administration of propionyl-L-carnitine)?
A: 2 to 6 h
